Source: patent US4847253A, “Antiparkinson ergoline derivatives” (Farmitalia Carlo Erba, priority 1987, dated 1989)
“Also recorded” adds a separate entry of the source.

Assays:
[1] = known side effects, background; cited from earlier work
[2] = test system: 6-OHDA lesioned rats; assay: Contralateral turning behavior in 6-OHDA lesioned rats; type: in vivo, Male (ICR) Wistar rats; conditions: scored for six hours
Method: The profile of dopamine agonists of the compound of the formula I was preliminary discovered by an induction of contralateral turning in rats with unilateral 6-hydroxy dopamine-induced lesions of the dopaminergic nigrostriatal pathway (according to the principles of U. Ungerstedt et al., Brain Research 24 (1970); p. 485).
Male (ICR) Wistar rats (290-310 g) anaesthetized i.p. with 50 mg/kg pentobarbital sodium were placed in a Stoelting stereotaxis frame and unilaterally injected with 6-hydroxy-dopamine (6-OHDA) in substantia nigra, pars compacta (8 μg of free base in 4 μl of saline kept ice cold with 0.2% ascorbic acid at the rate of 1 μl/min.). The neurotoxin was injected via a 10 μl Hamilton syringe under the following coordinates: A, 3.7 mm anterior to interaural line; V. 2.2 mm dorsal to interaural line; L, 2.2 mm from midline, according to Paxinos and Watson (The rat brain in stereotaxic coordinates. Academic Press, Sydney, Australia, 1982).
The needle was left in place 5 minutes further before being slowly withdrawn.
Following recovery from anaesthesia, rats were housed in a cage and given access to food and water ad libitum. After a 3 week recovery, rats were injected with apomorphine (0.5 mg/kg s.c.) and immediately put in automated rotometer bowls with a printing unit for 3 hours.
Only rats showing contralateral turning behavior totalling at least 250 complete turns within the control time, were used for the test with the compounds.
The test compounds were injected subcutaneously and rotational behavior scored each time for six hours.
All tested compounds were administered in a fixed volume (2 ml/kg body weight).

[3] = test system: apomorphine-induced climbing; assay: Antagonism to apomorphine-induced climbing in normal mice; type: in vivo; conditions: for ED50: Mus musculus, po
Method: The anti-dopaminergic activity in normal mice of the ergoline derivatives according to the invention was assessed by the antagonism to apomorphine-induced climbing (Protais, P. et al., Psychopharmacology, 50, 1, 1976).

[4] = test system: Reserpine-Treated Mice; assay: Locomotor activity in reserpine-treated mice; type: in vivo, Male mice, Crl:CD-1 (ICR) BR strain; conditions: for No. of counts in 85 min.: reserpine 5 mg/kg i.p. pretreated; for locomotor activity in akinetic reserpinized mice: result in words, FCE 23884 at 1 mg/kg s.c.
Method: Male mice, (22-25 g) of the Crl:CD^R -1 (ICR) BR strain, were used. Injection volume for drugs was 0.5 ml/100 g body weight. Locomotor activity in mice was examined from 5 up to 90 min. by use of two "Columbus activity Meters" placing 5 animals per cage after each treatment. Comparison was made with reserpine treated animals (5 mg/kg i.p.) receiving saline (controls).
Groups of five mice were used each time. Eighteen hours reserpine pretreated mice were subcataneously injected with the test compound or apomorphine or saline.
Five minutes later, the animals were tested for locomotor activity according D. Hinzen et al., European Journal of Pharmacology 131 (1986) 75-86.

[5] = test system: MPTP treated monkeys; assay: MPTP-induced parkinsonism in monkey model; type: in vivo, Marmosets and cynomolgus
Text: In nonhuman primates MPTP (1-methyl-4-phenyl-1,2,3,6-tetrahydropyridine) selectively destroys dopaminergic neurons in the substantia nigra pars compacta as has been shown in different primate species (1) (2) including the common marmoset and cynomolgus.
Repeated administration of MPTP produces varying degrees of akinesia or bradykinesia accompanied by rigidity of limbs, loss of vocalization and postural tremor.
Marmosets and cynomolgus were employed in these experiments. Each animal was administered a variable dosage regime showing them to have an individual susceptibility to MPTP according to Jenner et al. (3).
For the marmoset the cumulative dose was between 11-29 mg/kg i.p. over time courses of 4-10 days for three marmosets and 10-12 mg/kg i.p. for two cynomolgus in 4 days. All the monkeys were severely affected, completely akinetic and rigid with loss of vocalization, and blink reflex, with some postural tremor and were rendered unable to eat by themselves. After two or three days of wash-out to avoid the acute effect of MPTP administration, compound FCE 23884 was injected subcutaneously once a day starting from the dose 0.1 mg/kg up to 2 mg/kg.
Saline was administered in alternate fashion every three treatements to avoid the normal described improvement after the suspension of MPTP administration.

[6] = test system: non-MPTP treated monkeys; assay: Behavior in non-MPTP treated monkeys; type: in vivo; conditions: s.c.

| SMILES | No. of contralateral turns (X) in turning rats ([2]; 1.0 mg/kg s.c.) | Turning rats/Treated rats ([2]; 1.0 mg/kg s.c.) | ED50 [3] [mg/kg] | locomotor activity in akinetic reserpinized mice [4] | also measured |
| --- | --- | --- | --- | --- | --- |
| CC(C)C[C@H]1C(=O)N2CCC[C@H]2[C@]2(O)O[C@](NC(=O)[C@@H]3C=C4c5cccc6[nH]c(Br)c(c56)C[C@H]4N(C)C3)(C(C)C)C(=O)N12 [Bromocriptine, reference compound] | 1922.3 | 6/9 | – | – | adverse effects [1]: emesis, hypotension, cardiac arrhythmia, digital vasospasm in cold weather, conjunctival irritation, diplopia, nasal stuffiness, constipation and syndrome of bilateral red, tender edema of the lower limbs and neuroendocrine alterations; Apomorphine antagonism (ED50) ([3]; p.o.): Inactive at 10 mg/kg |
| CN1C(=O)CN(C[C@@H]2C[C@@H]3c4cccc5[nH]cc(c45)C[C@H]3N(C)C2)CC1=O [FCE 23710, 6-Methyl-8β-(3,5-dioxo-4-methyl-piperazin-1-yl-methyl)-ergoline] | 1829.2 | 4/4 | 2.2 | – | – |
| CN1C[C@H](CN2CC(=O)NC(=O)C2)C=C2c3cccc4[nH]cc(c34)C[C@H]21 [FCE 23884, 6-Methyl-9,10-didehydro-8β-(3,5-dioxo-piperazin-1-yl-methyl)-ergoline] | 2146 | 5/5 | 0.5 | elicits locomotor activity as does apomorphine | No. of counts in 85 min. ([4]; 1.0 mg/kg s.c.): 625; reversal of akinesia, time of onset ([5]; highest dose, 2 mg/kg s.c.): 5 min; reversal of akinesia, time of onset ([5]; lowest dose, 0.1 mg/kg s.c.): 30 min; effect in lesioned / MPTP treated monkeys ([5]; s.c.): dopaminergic effect in lesioned animals; also recorded: dopaminergic agent in the MPTP treated monkeys; Reversal of akinesia ([5]; s.c. once a day, 0.1 mg/kg up to 2 mg/kg): Reversal of akinesia in a dose-dependent fashion was observed; No. of contralateral turns (X) in turning rats ([2]; 0.1 mg/kg s.c.): 1317.5; Turning rats/Treated rats ([2]; 0.1 mg/kg s.c.): 9/10; No. of contralateral turns (X) in turning rats ([2]; 0.5 mg/kg s.c.): 2591.7; Turning rats/Treated rats ([2]; 0.5 mg/kg s.c.): 10/10; behavioral effect in non-MPTP treated monkeys [6]: sedative effect in a dose-dependent fashion; also recorded: antidopaminergic in non MPTP-treated monkeys |
| CN1C[C@H](CN2CC(=O)NC(=O)C2)C[C@@H]2c3cccc4c3c(cn4C)C[C@H]21 [FCE 23952, 1,6-Dimethyl-8β-(3,5-dioxo-piperazin-1-yl-methyl)-ergoline] | 710.5 | 4/4 | 0.9 | – | – |
| CN1CCc2cccc3c2[C@H]1Cc1ccc(O)c(O)c1-3 [apomorphine, reference compound] | – | – | – | elicits locomotor activity | No. of counts in 85 min. ([4]; 0.05 mg/kg s.c.): 413 |
